Numbers after ± are expanded uncertainties.
Test: molar heat capacity at constant pressure
Conditions: 101.33 kPa, Small (less than 1 g) adiabatic calorimetry

CCCCn1cc[n+](C)c1.[Br-] [1-butyl-3-methylimidazolium bromide]
Conditions | molar heat capacity at constant pressure [J/K/mol]
210 K, Crystal | 179.9 ± 0.92
210.34 K, Crystal | 180.27 ± 0.92
211.54 K, Glass | 201.34 ± 1
212.44 K, Crystal | 181.75 ± 0.93
213.66 K, Glass | 205.71 ± 1
214.52 K, Crystal | 183.24 ± 0.93
215.75 K, Glass | 211.67 ± 1
216.61 K, Crystal | 184.62 ± 0.94
217.78 K, Glass | 223.22 ± 1.1
218.7 K, Crystal | 186.06 ± 0.94
219.71 K, Glass | 249.71 ± 1.2
220 K, Crystal | 186.6 ± 0.92
220.79 K, Crystal | 187.32 ± 0.95
222.88 K, Crystal | 188.66 ± 0.96
224.97 K, Crystal | 190.05 ± 0.96
225.62 K, Liquid | 289.04 ± 1.4
227.06 K, Crystal | 191.53 ± 0.97
227.7 K, Liquid | 289.5 ± 1.4
229.15 K, Crystal | 192.85 ± 0.97
229.79 K, Liquid | 290.01 ± 1.4
230 K, Crystal | 193.1 ± 1
231.24 K, Crystal | 194.13 ± 0.98
231.89 K, Liquid | 290.69 ± 1.4
233.34 K, Crystal | 195.6 ± 0.98
233.98 K, Liquid | 291.24 ± 1.4
235.43 K, Crystal | 196.86 ± 0.99
236.07 K, Liquid | 291.65 ± 1.4
237.53 K, Crystal | 198 ± 0.99
238.17 K, Liquid | 292.05 ± 1.4
239.63 K, Crystal | 199.44 ± 1
240 K, Crystal | 199.5 ± 1
240.26 K, Liquid | 292.64 ± 1.4
241.72 K, Crystal | 200.93 ± 1
242.35 K, Liquid | 293.21 ± 1.4
243.82 K, Crystal | 202.36 ± 1
244.44 K, Liquid | 293.89 ± 1.4
245.93 K, Crystal | 203.67 ± 1
246.54 K, Liquid | 294.81 ± 1.4
248.03 K, Crystal | 205.09 ± 1
248.64 K, Liquid | 295.35 ± 1.4
250 K, Crystal | 206.2 ± 1
250.12 K, Crystal | 206.58 ± 1
250.73 K, Liquid | 296.1 ± 1.4
252.22 K, Crystal | 208.01 ± 1
252.83 K, Liquid | 296.76 ± 1.4
254.32 K, Crystal | 209.53 ± 1
256.43 K, Crystal | 211.04 ± 1
258.53 K, Crystal | 212.45 ± 1
260 K, Crystal | 213.2 ± 1.1
260.63 K, Crystal | 213.97 ± 1.1
262.74 K, Crystal | 215.49 ± 1.1
264.84 K, Crystal | 217.16 ± 1.1
266.93 K, Crystal | 218.74 ± 1.1
269.03 K, Crystal | 220.2 ± 1.1
270 K, Crystal | 220.8 ± 1.1
271.12 K, Crystal | 222.15 ± 1.1
273.22 K, Crystal | 223.99 ± 1.1
275.33 K, Crystal | 225.35 ± 1.1
277.43 K, Crystal | 227.05 ± 1.1
279.55 K, Crystal | 228.43 ± 1.1
280 K, Crystal | 228.4 ± 1.1
281.65 K, Crystal | 230.01 ± 1.1
283.76 K, Crystal | 231.57 ± 1.1
285.86 K, Crystal | 232.75 ± 1.1
287.97 K, Crystal | 234.48 ± 1.1
290 K, Crystal | 235.8 ± 1.2
290.08 K, Crystal | 236.13 ± 1.1
292.19 K, Crystal | 237.64 ± 1.2
294.31 K, Crystal | 239.37 ± 1.2
296.42 K, Crystal | 241.14 ± 1.2
298.15 K, Crystal | 241.8 ± 1.2
298.54 K, Crystal | 243.38 ± 1.2
300 K, Crystal | 243.1 ± 1.2
300.66 K, Crystal | 245.13 ± 1.2
302.78 K, Crystal | 247.98 ± 1.2
304.91 K, Crystal | 249.78 ± 1.2
308.84 K, Crystal | 254.23 ± 1.2
310 K, Crystal | 250.4 ± 1.2
312.32 K, Crystal | 258.72 ± 1.2
314.44 K, Crystal | 261.85 ± 1.2
320 K, Crystal | 257.8 ± 1.2
330 K, Crystal | 265.1 ± 1.2
340 K, Crystal | 272.5 ± 1.3
350 K, Crystal | 279.8 ± 1.3
351.35 K, Crystal | 280.8 ± 1.3
351.35 K, Liquid | 332.6 ± 1.5
355.98 K, Liquid | 334.82 ± 1.5
359.86 K, Liquid | 336.11 ± 1.5
360 K, Liquid | 336.3 ± 1.6
362.1 K, Liquid | 338.41 ± 1.6
364.36 K, Liquid | 339.33 ± 1.6
366.64 K, Liquid | 339.84 ± 1.6
370 K, Liquid | 340.9 ± 1.6
